Laboratory results taken from patent publication US20030170223A1, “Pulmonary vasodilator surfactant compositions and method of use” (Board of Trustees of Michigan State University, priority 2002, published 2003).

Experiments:
[1] = tested on: PA smooth muscle cell contraction in the lungs from new born rats (U46619 vasoconstriction); experiment: Non-specific inhibition test: U46619 vasoconstriction response in isolated perfused lungs; design: species or system Sprague-Dawley rats; conditions: U46619 5 ng/mL
Experimental: (§1) Isolated perfused lung preparation prepared from newborn rats. Male or female newborn (less than 48 hours old) Sprague-Dawley rats are anesthetized with pentobarbital sodium (0.65 mg/kg; ip), and heparin (1000 U/kg) is administered intravenously. Lungs are isolated as follows. Briefly, the lungs and the heart are remove en block and the pulmonary artery (PA) and left atrium are cannulated and perfused with a buffered salt solution (BSS) (NaCl (117 mM), KCl (4 mM), NaHCO3 (18 mM), MgSO4 (0.76 mM), NaHPO4′H2O (1 mM), CaCl2 (1.21 mM), and glucose (1 g/L)) containing bovine serum albumin (0.5% w/v) and indomethacin (10 mg/L). After flushing the pulmonary circulation with perfusate (100-200 mL), the lungs are perfused from a recirculating system (35 mL) at 8 mL/min. Perfusate is maintained at […], pH 7.4, and bubbled with 5% O2, 5% CO2, and 90% N2. Left atrial pressure is maintained at 1 cm H2O2 by elevating the venous outflow cannula. The lungs are ventilated with a small animal respirator using a humidified gas mixture of 21% O2, 5% CO2, and 74% N2 (normoxia) at a rate of 54 breaths/in, a tidal volume of 2-3 mL and an end-expiratory pressure of 3 cm H2O2. Left atrial and PA pressures are continuously recorded on a multichannel strip chart recorder (Grass Instruments, Quincy, Mass.).
Hypoxia-induced changes in pulmonary vascular impedance are represented as the change in PA pressure observed during hypoxic ventilation under constant flow conditions, compared with normoxia, in cm H2O. Two hypoxic challenges are performed and averaged to define the baseline response prior to the experimental intervention, thus allowing each lung to act as its own control. The experimental agents then are added to the reservoir and allowed to recirculate for 5-10 minutes, after which two more hypoxic challenges are administered and averaged to evaluate the effects of the intervention. In the continued presence of the experimental agents, the stable thromboxane A2 analog, U46619 (5 ng/mL) is then added to the reservoir to determine the effect on the ability to respond to a receptor-mediated vasoconstricting agonist. This provided a measure of the specificity of the intervention for the response to hypoxia.
Non-specific inhibition of PA smooth muscle cell contraction in the lungs from new born rats. To determine whether the pharmacological agents that inhibited the HPV response in our study might also affect the response a receptor-mediated vasoconstrictor, studies are carried out using the stable Thromboxane A2 analog, U46619 (5 ng/mL). Experiments are performed to assess the U46619 response before and after the addition of the experimental agents. Briefly, lungs are subjected to a challenge of U46619 and the change in PA pressure is measured. The vasculature is then washed out with fresh perfusate until the PA pressure returned to baseline (approximately 10 minutes elapsed time), after which the experimental agents are administered to the reservoir. After 10 minutes, a second dose of U46619 is added to the reservoir and the change in PA pressure is measured. Only Rotenone blunted the U46619 vasoconstriction at 5 μg/mL. Myxothiazol (50 μg/mL), cyanide (10 μM), ebselen (50 μM), and DDC (1 μM) had no effect on the U46619 vasoconstriction response. DPI (10 μM), rotenone (50 ng/mL), antimycin A (1 ng/mL), PDTC (10 μM), and DIDS (200 μM) augmented the U46619 vasoconstriction response.

PA myocytes [2] = experiment: SYTOX Green membrane permeability check; assay type: cell-based, rat; conditions: 300 μM, plasma membrane disruption
Experimental: Pulmonary microvessel myocyte isolation from the isolated lungs from the newborn rats. Myocytes are isolated using a modification of the method of Marshall et al. (______ (1999). Freshly excised rat heart and lungs are rinsed with phosphate-buffered saline (PBS) containing penicillin and streptomycin (1%). The right ventricle is cannulated and the pulmonary vasculature is flushed with the PBS (30 mL). Using the PA cannula, M199 growth media (30 mL) containing HEPES (25 mM), and penicillin and streptomycin (1%) plus low melting point agarose (0.5%) and iron particles (0.5%), is flushed through the pulmonary vasculature. Because the iron particles are too large to pass through the capillaries, only the arteries contained iron particles. The airways are filled via the trachea with M199 (15 mL) containing low melting point agarose (1%) without iron. The lungs are plunged into cold PBS to cause the agarose to gel. After 10 minutes, the lobes are dissected free and finely minced in a petri dish. […]
In steady state, increases in fluorescence occur when the rate of intracellular oxidation of the dye is accelerated. […] To confirm that the decrease in DCF fluorescence seen upon reoxygenation is not due to a loss of plasma membrane integrity, additional studies are carried out using SYTOX Green dye (100 nM) to detect changes in membrane permeability. […]

[3] = aqueous solutions; cited from earlier work
PA myocytes [4] = conditions: 10 μM
Experimental: To confirm that the loss of DCF fluorescence upon reoxygenation is not due to cell death subsequent to the opening of the mitochondrial permeability transition pore, additional studies are carried out using tetraethyrhodamine methyl ester (TMRE) to assess mitochondrial membrane potential (ΔΨm). This cationic dye equilibrates across the mitochondrial inner membrane in accordance with the AΔΨm, and changes in endothelia fluorescence at these non-quenching concentrations can be used to detect changes in mitochondrial polarization. PA myocytes on collagen-coated cover slips are loaded with TMRE (100 nM) for 45 minutes at 37° C. The cells are then placed in a flow-through chamber on an inverted microscope and perfused with M199 media without serum containing TMRE (10 nM). Fluorescence images are obtained under baseline normoxic conditions (16% O2/5% CO2) until a stable baseline is established. The PO2 of the media is then lowered for 30 mm (1% O2/5% CO2), after which it is restored to normoxia for 30 minutes.

[5] = tested on: degradation of IκB-β / NF-κB; conditions: in vivo and experimental lung transplant preservation media; cited from earlier work
PA endothelia myocytes = experiment: DCFH oxidation (ROS probe) sensitivity check; assay type: cell-based, rat
Experimental: Pulmonary microvessel endothelia isolation and measurement of reactive oxygen species (ROS). ROS generation in pulmonary endothelia and myocytes is assessed using the probe 2′,7′-dichlorofluorescin diacetate (DCFH-DA, 5 μM Molecular Probes), which is continuously present in the perfusate. The diacetate form enters the cells where esterases cleave the acetate group, tending to trap the nonfluorescent 2′,7′-dichlorofluorescin (DCFH) intracellularly. In the presence of H2O2, this probe is oxidized to 2′,7′-dichlorofluorescein (DCF), which is quantified using fluorescence imaging (excitation: 488 nm, emission: 535 nm) in a system equipped with a 12 bit digital camera. Intensity values are reported as percent of initial values, after subtracting background (METAMORPHIC, Universal Imaging, Inc.).
To confirm that the DCFH dye is sensitive to oxidation by H2O2, additional studies are carried out in PA endothelia myocytes superfused with normoxic (16% O2) media in the presence of DCFH-DA (5 μM). […] When the H2O2-containing media is replaced with fresh media containing DCFH without H2O2, intracellular fluorescence decreased toward baseline values. These findings confirm that DCFH oxidation is sensitive to H2O2, and that oxidized DCF can leak out of viable cells and explain the decrease in fluorescence seen at reoxygenation.

[6] = tested on: isolated lungs from the newborn rats; experiment: HPV responses in isolated lungs: PA pressure after agonist; design: species or system Sprague-Dawley rats; conditions: 10 nM in recirculating perfusate
Experimental: as §1
HPV responses in isolated lungs from the newborn rats. […]

c1ccc2c(c1)[I+]c1ccccc1-2 [DPI, diphenyleneiodonium]
effect on U46619 vasoconstriction response ([1]; 10 μM): augmented

CCN(CC)C(=S)S [DDC, diethyldithiocarbamate]
effect on U46619 vasoconstriction response ([1]; 1 μM): no effect

O=c1c2ccccc2[se]n1-c1ccccc1 [ebselen]
effect on U46619 vasoconstriction response ([1]; 50 μM): no effect

C[C@@H]1CC[C@@]2(OC1)O[C@H]1[C@@H](O)[C@H]3[C@@H]4CC[C@H]5C[C@@H](O[C@@H]6O[C@H](CO)[C@H](O[C@@H]7O[C@H](CO)[C@@H](O)[C@H](O[C@@H]8OC[C@@H](O)[C@H](O)[C@H]8O)[C@H]7O[C@@H]7O[C@H](CO)[C@H](O)[C@H](O[C@@H]8O[C@H](CO)[C@@H](O)[C@H](O)[C@H]8O)[C@H]7O)[C@H](O)[C@H]6O)[C@H](O)C[C@]5(C)[C@H]4CC[C@]3(C)[C@H]1[C@@H]2C [digitonin]
nuclear staining with SYTOX Green (PA myocytes [2]): all cells demonstrated nuclear staining

COC1=C(OC)C(=O)C(C/C=C(\C)CC/C=C(\C)CC/C=C(\C)CC/C=C(\C)CC/C=C(\C)CC/C=C(\C)CC/C=C(\C)CC/C=C(\C)CC/C=C(\C)CCC=C(C)C)=C(C)C1=O [CoQ10, 2,3-dimethoxy-5-methyl-6-decaprenyl-1,4-benzoquinone]
solubility [3]: only lipid soluble

CO/C(=C/C(N)=O)[C@H](C)[C@H](/C=C/c1csc(-c2csc([C@@H](C)/C=C/C=C/C(C)C)n2)n1)OC [Myxothiazol, myxothiazol]
effect on U46619 vasoconstriction response ([1]; 50 μg/mL): no effect

N#CC(C#N)=NNc1ccc(OC(F)(F)F)cc1 [FCCP, carbonyl cyanide p-trifluoromethoxyphenylhydrazone]
TMRE fluorescence (ΔΨm) (PA myocytes [4]): rapid, significant decrease in fluorescence

S=C(S)N1CCCC1 [PDTC, pyrrolidine dithiocarbamate]
effect on U46619 vasoconstriction response ([1]; 10 μM): augmented | solubility [3]: poorly soluble | pulmonary mean arterial pressure (MAP), edema, and cellular infiltration [5]: reduced | pulmonary oxygenation [5]: improved significantly

C=C(C)[C@H]1Cc2c(ccc3c2O[C@@H]2COc4cc(OC)c(OC)cc4[C@@H]2C3=O)O1 [rotenone]
effect on U46619 vasoconstriction response ([1]; 50 ng/mL): augmented | effect on U46619 vasoconstriction response ([1]; 5 μg/mL, isolated perfused newborn rat lung): blunted

antimycin A
effect on U46619 vasoconstriction response ([1]; 1 ng/mL): augmented

OO [H2O2]
intracellular DCF fluorescence (PA endothelia myocytes): increased significantly and progressively

O=S(=O)(O)c1cc(N=C=S)ccc1C=Cc1ccc(N=C=S)cc1S(=O)(=O)O [DIDS, 4,4′-diisothiocyanatostilbene-2,2′-disulphonic acid]
effect on U46619 vasoconstriction response ([1]; 200 μM): augmented

Angiotensin II
increase of PA pressure [6]: ~2 cm H2O

B1: recombinant human IκB-α: recombinant human IκB-α which can maintain the inhibitory effect on NF-κB (protein, UniProt P25963 1-317, looked up)
NF-kappa-B inhibitor alpha: MFQAAERPQEWAMEGPRDGLKKERLLDDRHDSGLDSMKDEEYEQMVKELQEIRLEPQEVPRGSEPWKQQLTEDGDSFLHLAIIHEEKALTMEVIRQVKGDLAFLNFQNNLQQTPLHLAVITNQPEIAEALLGAGCDPELRDFRGNTPLHLACEQGCLASVGVLTQSCTTPHLHSILKATNYNGHTCLHLASIHGYLGIVELLVSLGADVNAQEPCNGRTALHLAVDLQNPDLVSLLLKCGADVNRVTYQGYSPYQLTWGRPSTRIQQQLGQLTLENLQMLPESEDEESYDTESEFTEFTEDELPYDDCVFGGQRLTL
solubility [3]: poorly soluble
